We go through six compounds from patent US7632829B2, “Diazepan derivatives” (Hoffmann-La Roche Inc., priority 2006, dated 2009).

The target in assay [1] is T1, human chemokine receptor 2 isoform B (Homo sapiens, UniProt P41597).
T1 construct: host or cells: CHOK1-CCR2B-A5 (CHO-K1)
T1 sequence (P41597 1-360 isoform P41597-2): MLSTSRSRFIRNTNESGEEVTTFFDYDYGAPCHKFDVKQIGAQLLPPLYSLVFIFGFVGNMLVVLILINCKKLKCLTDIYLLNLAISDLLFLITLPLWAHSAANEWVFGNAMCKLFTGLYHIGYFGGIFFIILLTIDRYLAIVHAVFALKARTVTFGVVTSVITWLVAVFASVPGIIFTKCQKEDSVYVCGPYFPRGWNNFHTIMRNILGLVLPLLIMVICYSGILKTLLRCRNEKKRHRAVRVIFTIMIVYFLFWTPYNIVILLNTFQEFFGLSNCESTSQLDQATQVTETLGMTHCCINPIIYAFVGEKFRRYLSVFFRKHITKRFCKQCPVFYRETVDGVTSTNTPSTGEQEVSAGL
The experiment in a line: Calcium mobilization assay (FLIPR, CHOK1-CCR2B-A5 cells, 20 nM MCP-1). It counts as cell-based. The note with it: Ca mobilisation assay, CCR2, antagonist activity vs 20 nM MCP-1. In a few lines: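 Antagonism read as IC50 against 20 nM MCP-1-evoked calcium rise (peak minus baseline Fluo-4 signal, FLIPR) in CCR2B-overexpressing CHO-K1 cells. Compounds were preincubated 20-30 min at 30 °C, with agonist activity recorded for 80 s on addition.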
(In general: Calcium assays in cells follow changes in intracellular calcium, usually with a dye or a luminescent sensor.)

For a further assay, the target named is T2, CCR2 (Homo sapiens, UniProt P41597).
T2 construct: endogenous in cells; host or cells: THP1-4x cells
T2 sequence (P41597 1-360 isoform P41597-2): T1 sequence (P41597 1-360 isoform P41597-2)
The experiment in a line: Chemotaxis assay (THP1-4x cells, migration towards 10 nM MCP-1). It is filed as cell-based. The note with it: inhibition of specific migration towards MCP-1. The protocol: The chemotaxis assay was performed with THP1-4x cells (Mirzadegan et al. 2000, The Journal of Biological Chemistry 275, 33, 25562-25571) similar as described earlier (Kruszynski et al. 2005, Journal of Peptide Science, in press.).
THP1-4x were cultured in RPMI1640, 2 mM L-glutamine, 0.15% Na-bicarbonat, 0.25% D-glucose, 10 mM Hepes, […] Na-pyruvate, […] β-mercaptoethanol, 10% FBS. Isolated cells were labelled in culture medium with 2.5 μg/ml calcein-AM (Molecular Probes) for 60 minutes at 37° C. Excess calcein was removed and cells were washed in D-PBS^++, 2% FBS.
Cells (1×10^5) with or without various concentrations of test compounds were loaded on the top of 8-μm polycarbonate filter in a 96-well-modified Boyden chamber (NeuroProbe). Beneath the filter 10 nM MCP-1 (R&D Systems; Roche) with or without test compounds or D-PBS^++, 2% FBS was placed in the corresponding well. The closed chambers were incubated for 1 hour at 37° C., 5% CO2. Remaining cells in the top compartment were wiped off and migrated cells were measured as fluorescence in the bottom compartment in a FLUOstar (Galaxy BMG) at 485 nm excitation and 530 nm emission. Specific migration is defined as total migration towards MCP-1 minus the background migration towards D-PBS^++, 2% FBS. The ability of test compounds to antagonize CCR2-chemotaxis is reported as concentration required to inhibit 50% of specific migration (IC50) towards MCP-1.

For orientation: IC50 means the concentration that gives 50% inhibition. `O=C(/C=C/c1ccc(Cl)c(Cl)c1)N1CCC(=O)N(CCCN2CCCC(O)C2)CC1` (racemic) [Example 81, (+/−)-1-[(E)-3-(3,4-Dichloro-phenyl)-acryloyl]-4-[3-(3-hydroxy-piperidin-1-yl)-propyl]-[1,4]diazepan-5-one]: the IC50 in assay [1] came to 204 nM; at CCR2, 71 nM.
On the same counts, the results for `O=C(/C=C/c1ccc(Cl)c(Cl)c1)N1CCC(=O)N(CCN2CCCC2)CC1` [Example 160, 1-[(E)-3-(3,4-Dichloro-phenyl)-acryloyl]-4-(2-pyrrolidin-1-yl-ethyl)-[1,4]diazepan-5-one] are 232 nM and 101 nM.
Consider `O=C1NC(=O)C2(CCN(CCCN3CCN(C(=O)/C=C/c4ccc(Cl)c(Cl)c4)CCC3=O)CC2)N1` [Example 48, 8-(3-{4-[(E)-3-(3,4-Dichloro-phenyl)-acryloyl]-7-oxo-[1,4]diazepan-1-yl}-propyl)-1,3,8-triaza-spiro[4.5]decane-2,4-dione], for which the half-maximal inhibitory concentration (IC50) in assay [1] was determined as 64 nM; on CCR2, 13 nM.
As for `O=C(/C=C/c1ccc(Cl)c(Cl)c1)N1CCC(=O)N(CCCN2CCC(O)(c3ccccc3)CC2)CC1` [Example 59, 1-[(E)-3-(3,4-Dichloro-phenyl)-acryloyl]-4-[3-(4-hydroxy-4-phenyl-piperidin-1-yl)-propyl]-[1,4]diazepan-5-one], the half-inhibitory concentration (IC50) in assay [1] stood at 14 nM; against CCR2, 77 nM.
For `O=C(/C=C/c1ccc(Cl)c(Cl)c1)N1CCC(=O)N(CCCCN2CCC3(CC3)C(O)C2)CC1` (racemic) [Example 456], the IC50 in assay [1] was determined as 16 nM.
On the same count and under the same terms, the result for `CC1CCC(O)CN1CCCCN1CCN(C(=O)/C=C/c2ccc(Cl)c(F)c2)CCC1=O` (racemic) [Example 413] reads 77 nM.
